The values below come from ChEMBL document CHEMBL5465560, “Selectivity Literature for EUbOPEN Chemogenomic Library” (2024).

Experiment [1] has as its system Epidermal growth factor receptor (Homo sapiens), P00533 [UNDEFINED MUTATION]. Put plainly: Selectivity interaction (KinomeScan (DiscoverX)) EUB0001619a EGFR. Particulars: at 1 µM.
For experiment [2], the target named is T1, Phosphorylase b kinase gamma catalytic chain, liver/testis isoform (Homo sapiens) (UniProt P15735).
T1 sequence (whole entry): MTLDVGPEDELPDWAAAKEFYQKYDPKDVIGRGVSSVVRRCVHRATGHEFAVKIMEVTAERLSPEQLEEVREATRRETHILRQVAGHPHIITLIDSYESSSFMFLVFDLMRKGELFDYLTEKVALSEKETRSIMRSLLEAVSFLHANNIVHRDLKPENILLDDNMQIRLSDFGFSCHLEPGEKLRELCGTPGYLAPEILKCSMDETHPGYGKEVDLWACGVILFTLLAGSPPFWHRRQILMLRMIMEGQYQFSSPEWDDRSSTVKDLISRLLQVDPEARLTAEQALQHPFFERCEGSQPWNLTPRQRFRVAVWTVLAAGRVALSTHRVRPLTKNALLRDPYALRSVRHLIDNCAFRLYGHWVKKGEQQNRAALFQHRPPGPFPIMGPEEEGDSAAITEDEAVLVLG
Put plainly: Selectivity interaction (KinomeScan (DiscoverX)) EUB0001619a PHKG2. Particulars: at 1 µM.

Experiment [3] deals with ALK tyrosine kinase receptor (Homo sapiens, UniProt Q9UM73). Put plainly: Selectivity interaction (KinomeScan (DiscoverX)) EUB0000666a ALK. Particulars: at 10 µM.
The target of experiment [4] is T2, Mitogen-activated protein kinase kinase kinase 2 (Homo sapiens) (UniProt Q9Y2U5).
T2 sequence (whole entry): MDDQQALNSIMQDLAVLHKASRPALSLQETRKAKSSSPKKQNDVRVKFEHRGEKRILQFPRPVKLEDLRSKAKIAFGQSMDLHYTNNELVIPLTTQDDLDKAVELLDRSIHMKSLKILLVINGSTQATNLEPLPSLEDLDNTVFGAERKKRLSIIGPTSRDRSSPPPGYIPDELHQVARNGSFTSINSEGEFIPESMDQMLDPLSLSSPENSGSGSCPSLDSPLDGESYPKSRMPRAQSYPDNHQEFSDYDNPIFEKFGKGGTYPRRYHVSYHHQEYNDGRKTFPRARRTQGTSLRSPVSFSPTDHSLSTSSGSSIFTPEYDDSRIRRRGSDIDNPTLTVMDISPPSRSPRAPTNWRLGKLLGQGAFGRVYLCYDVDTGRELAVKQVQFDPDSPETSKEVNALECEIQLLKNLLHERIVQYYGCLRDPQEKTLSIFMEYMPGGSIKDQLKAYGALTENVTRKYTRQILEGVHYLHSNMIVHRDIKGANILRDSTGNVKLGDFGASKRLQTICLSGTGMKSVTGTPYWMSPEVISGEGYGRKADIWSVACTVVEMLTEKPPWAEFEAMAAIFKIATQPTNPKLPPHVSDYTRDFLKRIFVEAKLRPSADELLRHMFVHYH
Briefly: Selectivity interaction (KinomeScan (DiscoverX)) EUB0000607a MAP3K2. Particulars: at 10 µM.

Experiment [5] addresses Mitogen-activated protein kinase 1 (Homo sapiens, UniProt P28482). Briefly: Selectivity interaction (SelectScreen profiling (Invitrogen)) EUB0000607a MAPK1. The settings on record: at 2 µM.
Experiment [6] has as its target Tyrosine-protein kinase ABL1 (Homo sapiens, UniProt P00519). Put plainly: Selectivity interaction (Kinase panel (Invitrogen)) EUB0000639a ABL1. The settings on record: at 200 nM.
Experiment [7] addresses Death-associated protein kinase 3 (Homo sapiens) (UniProt O43293). Put plainly: Selectivity interaction (Kinase panel (DSF assay)) EUB0001559a DAPK3.
For experiment [8], the target named is T3, Membrane-associated tyrosine- and threonine-specific cdc2-inhibitory kinase (Homo sapiens) (UniProt Q99640).
T3 sequence (whole entry): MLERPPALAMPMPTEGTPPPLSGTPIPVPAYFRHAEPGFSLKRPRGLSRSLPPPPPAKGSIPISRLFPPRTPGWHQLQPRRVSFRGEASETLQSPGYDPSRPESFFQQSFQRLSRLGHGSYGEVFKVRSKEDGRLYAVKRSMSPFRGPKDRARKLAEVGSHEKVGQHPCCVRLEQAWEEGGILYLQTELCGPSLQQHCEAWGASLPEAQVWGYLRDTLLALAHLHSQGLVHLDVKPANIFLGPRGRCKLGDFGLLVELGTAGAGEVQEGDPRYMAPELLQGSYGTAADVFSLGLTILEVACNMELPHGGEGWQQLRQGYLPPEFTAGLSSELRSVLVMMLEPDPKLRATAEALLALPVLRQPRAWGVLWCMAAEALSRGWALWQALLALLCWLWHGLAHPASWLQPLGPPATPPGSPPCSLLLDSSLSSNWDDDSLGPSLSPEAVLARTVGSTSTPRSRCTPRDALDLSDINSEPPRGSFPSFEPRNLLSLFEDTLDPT
Briefly: Selectivity interaction (KinomeScan (DiscoverX)) EUB0000045b PKMYT1.

The target of experiment [9] is Protein arginine N-methyltransferase 3 (Homo sapiens, UniProt O60678). Put plainly: Selectivity interaction (Methyltransferase screen (radiometric assays, panel of 8 PRMTs, 21 protein lysine methyltransferases, 3 DNA methyltransferases, and one RNA methyltransferase)) EUB0000272b PRMT3.
Experiment [10] addresses Ephrin type-A receptor 2 (Homo sapiens) (UniProt P29317). Put plainly: Selectivity interaction (KinomeScan (DiscoverX)) EUB0001079a EPHA2. The settings on record: at 1 µM.
Experiment [11] addresses T4, NUAK family SNF1-like kinase 1 (Homo sapiens) (UniProt O60285).
T4 sequence (whole entry): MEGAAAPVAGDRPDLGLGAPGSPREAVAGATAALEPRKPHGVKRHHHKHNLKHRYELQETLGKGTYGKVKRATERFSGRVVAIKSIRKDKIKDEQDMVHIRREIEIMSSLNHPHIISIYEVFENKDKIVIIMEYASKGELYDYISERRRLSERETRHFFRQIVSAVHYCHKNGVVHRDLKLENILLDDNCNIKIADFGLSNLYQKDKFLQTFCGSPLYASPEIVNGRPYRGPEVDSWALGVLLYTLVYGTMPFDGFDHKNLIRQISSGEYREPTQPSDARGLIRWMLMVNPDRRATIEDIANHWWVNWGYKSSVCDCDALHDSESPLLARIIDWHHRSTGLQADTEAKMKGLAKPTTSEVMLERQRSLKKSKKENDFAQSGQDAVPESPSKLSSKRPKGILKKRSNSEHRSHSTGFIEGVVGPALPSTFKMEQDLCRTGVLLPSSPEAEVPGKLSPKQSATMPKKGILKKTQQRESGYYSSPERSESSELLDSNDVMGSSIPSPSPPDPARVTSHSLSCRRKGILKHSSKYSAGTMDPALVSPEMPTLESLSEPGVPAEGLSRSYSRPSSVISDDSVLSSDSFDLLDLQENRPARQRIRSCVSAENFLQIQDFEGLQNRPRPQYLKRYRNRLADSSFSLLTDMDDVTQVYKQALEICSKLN
Put plainly: Selectivity interaction (KinomeScan (DiscoverX)) EUB0001079a NUAK1. The settings on record: at 1 µM.

For experiment [12], the target named is Platelet-derived growth factor receptor alpha (Homo sapiens, UniProt P16234). Briefly: Selectivity interaction (Millipore kinase profiler) EUB0000124b PDGFRA. The settings on record: at 10 µM.
Chain of Platelet-derived growth factor receptor alpha (P16234 whole entry): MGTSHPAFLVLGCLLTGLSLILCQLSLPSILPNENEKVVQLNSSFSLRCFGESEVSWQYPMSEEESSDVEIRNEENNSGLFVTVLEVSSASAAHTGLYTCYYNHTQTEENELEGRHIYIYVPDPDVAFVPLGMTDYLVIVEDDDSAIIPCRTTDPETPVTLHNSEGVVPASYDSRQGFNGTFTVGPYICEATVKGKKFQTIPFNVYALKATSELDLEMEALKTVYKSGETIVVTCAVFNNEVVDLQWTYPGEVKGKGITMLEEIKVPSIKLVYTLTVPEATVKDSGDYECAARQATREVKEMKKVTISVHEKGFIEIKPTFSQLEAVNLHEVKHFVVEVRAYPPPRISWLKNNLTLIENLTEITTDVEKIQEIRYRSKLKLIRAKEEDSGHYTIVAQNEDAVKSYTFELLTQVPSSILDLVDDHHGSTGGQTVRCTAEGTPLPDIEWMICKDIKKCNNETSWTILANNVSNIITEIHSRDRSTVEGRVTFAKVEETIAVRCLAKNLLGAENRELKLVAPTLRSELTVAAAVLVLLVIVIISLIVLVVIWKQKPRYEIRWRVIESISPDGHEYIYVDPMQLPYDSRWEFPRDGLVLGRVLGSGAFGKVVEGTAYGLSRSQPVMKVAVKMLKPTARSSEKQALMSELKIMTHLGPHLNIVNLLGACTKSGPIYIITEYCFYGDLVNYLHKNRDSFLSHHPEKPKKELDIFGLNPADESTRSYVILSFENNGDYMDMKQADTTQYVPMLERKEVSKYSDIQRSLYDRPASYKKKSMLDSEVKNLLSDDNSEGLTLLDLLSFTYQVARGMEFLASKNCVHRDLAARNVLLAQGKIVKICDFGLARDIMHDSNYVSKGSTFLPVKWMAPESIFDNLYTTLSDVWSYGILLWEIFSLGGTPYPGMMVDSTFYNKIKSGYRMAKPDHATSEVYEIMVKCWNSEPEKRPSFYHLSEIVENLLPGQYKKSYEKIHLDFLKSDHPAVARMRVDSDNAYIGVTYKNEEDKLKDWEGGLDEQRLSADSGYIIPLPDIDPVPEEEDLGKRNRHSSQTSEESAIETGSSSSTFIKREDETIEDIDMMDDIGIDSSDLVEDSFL

Chain of Protein arginine N-methyltransferase 3 (O60678 2-531 limits assumed): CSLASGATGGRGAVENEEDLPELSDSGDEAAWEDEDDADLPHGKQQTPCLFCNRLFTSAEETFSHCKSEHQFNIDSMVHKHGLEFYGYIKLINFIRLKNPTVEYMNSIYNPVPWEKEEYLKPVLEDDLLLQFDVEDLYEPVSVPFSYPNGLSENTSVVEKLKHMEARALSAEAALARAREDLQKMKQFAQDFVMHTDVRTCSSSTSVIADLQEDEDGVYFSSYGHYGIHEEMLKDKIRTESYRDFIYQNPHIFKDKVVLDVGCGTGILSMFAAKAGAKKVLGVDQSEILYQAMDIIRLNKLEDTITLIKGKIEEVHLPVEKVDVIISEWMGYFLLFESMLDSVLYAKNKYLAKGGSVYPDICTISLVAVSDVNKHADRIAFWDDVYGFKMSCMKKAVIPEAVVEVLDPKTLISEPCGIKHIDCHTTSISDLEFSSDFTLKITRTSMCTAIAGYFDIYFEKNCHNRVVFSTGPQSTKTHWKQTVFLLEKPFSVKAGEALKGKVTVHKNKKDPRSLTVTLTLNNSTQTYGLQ
Chain of Mitogen-activated protein kinase 1 (P28482 whole entry): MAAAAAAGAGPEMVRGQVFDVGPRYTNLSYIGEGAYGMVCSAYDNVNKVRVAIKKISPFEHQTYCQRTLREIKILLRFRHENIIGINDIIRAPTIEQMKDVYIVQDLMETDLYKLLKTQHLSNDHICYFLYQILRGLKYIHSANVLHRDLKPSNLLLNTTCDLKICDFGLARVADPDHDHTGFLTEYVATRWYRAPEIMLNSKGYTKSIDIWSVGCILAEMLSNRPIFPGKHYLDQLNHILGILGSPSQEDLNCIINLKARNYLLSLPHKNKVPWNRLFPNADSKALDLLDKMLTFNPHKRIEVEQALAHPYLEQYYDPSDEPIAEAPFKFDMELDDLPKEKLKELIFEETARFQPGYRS
Chain of Ephrin type-A receptor 2 (Homo sapiens) (P29317 whole entry): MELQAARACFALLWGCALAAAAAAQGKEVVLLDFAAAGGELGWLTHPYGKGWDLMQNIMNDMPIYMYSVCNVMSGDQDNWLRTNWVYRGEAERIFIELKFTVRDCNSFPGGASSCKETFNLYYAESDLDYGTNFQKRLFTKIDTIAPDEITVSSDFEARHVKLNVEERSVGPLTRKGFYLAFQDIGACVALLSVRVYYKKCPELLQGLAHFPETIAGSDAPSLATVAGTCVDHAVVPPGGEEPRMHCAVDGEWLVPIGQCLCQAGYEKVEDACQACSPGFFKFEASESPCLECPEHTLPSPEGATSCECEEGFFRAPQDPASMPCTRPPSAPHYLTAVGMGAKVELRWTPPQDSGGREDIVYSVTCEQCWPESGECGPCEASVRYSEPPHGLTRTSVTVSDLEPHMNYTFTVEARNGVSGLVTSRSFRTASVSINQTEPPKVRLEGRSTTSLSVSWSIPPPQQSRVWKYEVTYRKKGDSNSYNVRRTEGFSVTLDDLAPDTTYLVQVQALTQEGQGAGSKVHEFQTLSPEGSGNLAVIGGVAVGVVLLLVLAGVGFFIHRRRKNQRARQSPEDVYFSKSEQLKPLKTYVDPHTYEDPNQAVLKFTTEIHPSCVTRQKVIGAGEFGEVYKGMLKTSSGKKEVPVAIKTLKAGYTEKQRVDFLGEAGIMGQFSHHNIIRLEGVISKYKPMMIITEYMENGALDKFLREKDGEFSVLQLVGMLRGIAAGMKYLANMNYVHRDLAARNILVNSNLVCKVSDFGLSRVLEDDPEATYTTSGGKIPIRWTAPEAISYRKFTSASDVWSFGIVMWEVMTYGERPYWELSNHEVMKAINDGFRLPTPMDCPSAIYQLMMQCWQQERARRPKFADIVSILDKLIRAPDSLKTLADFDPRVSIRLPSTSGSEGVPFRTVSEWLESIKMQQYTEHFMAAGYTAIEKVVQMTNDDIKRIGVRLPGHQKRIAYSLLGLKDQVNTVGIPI
Chain of Death-associated protein kinase 3 (Homo sapiens) (O43293 whole entry, looked up): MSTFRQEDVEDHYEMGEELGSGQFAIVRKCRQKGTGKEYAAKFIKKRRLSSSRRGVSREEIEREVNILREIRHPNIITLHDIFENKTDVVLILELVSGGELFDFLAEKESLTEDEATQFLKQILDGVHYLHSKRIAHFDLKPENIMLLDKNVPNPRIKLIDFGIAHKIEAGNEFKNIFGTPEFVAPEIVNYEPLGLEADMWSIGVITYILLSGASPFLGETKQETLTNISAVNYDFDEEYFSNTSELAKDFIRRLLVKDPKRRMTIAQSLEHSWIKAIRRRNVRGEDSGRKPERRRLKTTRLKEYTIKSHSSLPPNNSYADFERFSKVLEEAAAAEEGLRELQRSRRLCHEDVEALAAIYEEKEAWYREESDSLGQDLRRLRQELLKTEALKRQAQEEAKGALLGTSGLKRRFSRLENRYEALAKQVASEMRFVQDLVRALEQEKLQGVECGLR
Chain of Epidermal growth factor receptor (Homo sapiens), P00533 [UNDEFINED MUTATION] (P00533 whole entry, looked up, change not shown, canonical isoform): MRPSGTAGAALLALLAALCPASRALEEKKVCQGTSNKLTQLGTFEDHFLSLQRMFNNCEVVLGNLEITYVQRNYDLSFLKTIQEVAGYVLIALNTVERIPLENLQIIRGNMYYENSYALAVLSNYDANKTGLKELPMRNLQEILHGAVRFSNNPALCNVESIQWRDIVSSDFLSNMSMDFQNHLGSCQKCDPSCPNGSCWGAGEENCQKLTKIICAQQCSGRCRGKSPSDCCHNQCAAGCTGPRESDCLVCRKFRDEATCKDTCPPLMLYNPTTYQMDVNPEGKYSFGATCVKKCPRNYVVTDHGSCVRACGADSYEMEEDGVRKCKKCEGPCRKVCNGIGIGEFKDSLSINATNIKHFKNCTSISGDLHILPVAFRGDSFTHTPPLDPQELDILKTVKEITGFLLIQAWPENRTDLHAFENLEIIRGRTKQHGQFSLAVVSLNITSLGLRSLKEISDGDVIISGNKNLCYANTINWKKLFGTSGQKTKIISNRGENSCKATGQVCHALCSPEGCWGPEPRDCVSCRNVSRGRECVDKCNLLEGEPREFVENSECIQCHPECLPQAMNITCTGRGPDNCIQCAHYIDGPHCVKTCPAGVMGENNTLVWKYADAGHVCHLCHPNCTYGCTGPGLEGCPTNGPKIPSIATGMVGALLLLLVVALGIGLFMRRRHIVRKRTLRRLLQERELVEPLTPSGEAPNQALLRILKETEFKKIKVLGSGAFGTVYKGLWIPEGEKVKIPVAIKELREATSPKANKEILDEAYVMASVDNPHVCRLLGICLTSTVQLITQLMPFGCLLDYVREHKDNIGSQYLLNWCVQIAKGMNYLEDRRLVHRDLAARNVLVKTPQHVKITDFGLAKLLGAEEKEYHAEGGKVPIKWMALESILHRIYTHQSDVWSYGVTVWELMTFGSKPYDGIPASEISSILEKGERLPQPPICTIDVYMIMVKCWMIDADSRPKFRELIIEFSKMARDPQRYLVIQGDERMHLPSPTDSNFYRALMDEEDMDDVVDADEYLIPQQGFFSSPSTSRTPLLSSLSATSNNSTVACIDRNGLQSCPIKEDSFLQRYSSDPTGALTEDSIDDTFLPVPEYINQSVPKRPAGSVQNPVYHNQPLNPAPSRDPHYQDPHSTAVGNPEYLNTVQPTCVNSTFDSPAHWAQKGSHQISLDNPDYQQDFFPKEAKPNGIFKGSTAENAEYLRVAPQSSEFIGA

Consider `N#Cc1cccc(-c2c[nH]c3ncnc(N4CCOCC4)c23)c1`, for which the % of control in experiment [1] was found to be 83%; in experiment [2] it was 40%.

Consider `O=C(NOC[C@H](O)CO)c1ccc(F)c(F)c1Nc1ccc(I)cc1F`, for which the % of control in experiment [3] worked out at 100%. Consider `CNC(=O)Nc1ccc(-c2nc(N3CC4CCC(C3)O4)c3cnn(C4CCC5(CC4)OCCO5)c3n2)cc1`, for which the % of control in [4] is 95%. The % of inhibition in experiment [5] is 0%.

In turn, `CC[C@@H]1[C@H](F)C(=O)N[C@@H]1COc1nccc2cc(C(N)=O)c(OC)cc12` [ZIMLOVISERTIB] displayed a % of inhibition in experiment [6] of 1.34%. For `CN(C(=O)c1cnn2cccnc12)c1cc2c(cc1N1CCOCC1)C(=O)N(C[C@@H](F)C(C)(C)O)C2`, the dTM in experiment [7] turned out to be 0.2 K. For `C=CC(=O)Nc1cc(-n2c(=O)ccc3cnc4ccc(-c5ccc(NS(C)(=O)=O)cc5)cc4c32)ccc1C`, the % of control was found to be 77% in experiment [8] (at 1 µM) and 100% in experiment [8] (at 10 µM). `Cc1cc(C)cc([C@H]2c3cc(C)ccc3NC(=O)CN2C(=O)c2ccc(Br)s2)c1`: the % of activity in experiment [9] (at 1 µM) and in experiment [9] (at 10 µM) was 102% each time. Turning to `Nc1cnc(N2CCc3cc(S(=O)(=O)Nc4c(F)cc(Cl)cc4F)cc(N4CCCC4=O)c32)nc1` [TP-020n], the % of control in [10] and in experiment [11] was 100% in each case. As for `CC(=O)Nc1cccc(-n2c(=O)n(C3CC3)c(=O)c3c(Nc4ccc(I)cc4F)n(C)c(=O)c(C)c32)c1`, the % of control in experiment [12] turned out to be 111%.
